# “And” between values parts separate entries of the source, which are not always exact repeats. Equal entries are not always repeated.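 Where inhibition never reached the appropriate level, the endpoint shown equals the highest concentration tested. Otherwise, values were interpolated linearly from a five-concentration, 48-hour dose response in 96-well plates. GI50 = concentration required for 50% inhibition of growth. TGI: total growth inhibition.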
# How the values were obtained:
# Test in all cases: NCI tumour cell line growth inhibition, 48 h
# [1] = test system: CAKI-1 renal
# [2] = test system: HOP-92 NSCLC
# [3] = test system: HCT-15 colon
# [4] = test system: K-562 leukemia
# [5] = test system: HOP-62 NSCLC
# [6] = test system: MDA-MB-231 breast
# [7] = test system: RXF 393 renal
# [8] = test system: NCI-H460 lung
# [9] = test system: HCT-116 colon
# [10] = test system: NCI-H23 lung
Compound,GI50 [1] [µM],TGI [1],GI50 [2] [nM],TGI [2],GI50 [3],TGI [3],GI50 [4] [µM],TGI [4],GI50 [5],TGI [5] [µM],GI50 [6],TGI [6] [µM],GI50 [7] [µM],TGI [7],GI50 [8] [µM],TGI [8],GI50 [9] [µM],TGI [9] [µM],GI50 [10] [µM],TGI [10] [µM]
CC(C)N=c1cc2n(-c3ccc(Cl)cc3)c3ccccc3nc-2cc1Nc1ccc(Cl)cc1,1.73,> 20.9 µM,629,2.83 µM,0.54 µM and 1.61 µM,> 100 µM,2.24,> 100 µM,4.71 µM and 4.81 µM,> 100,0.618 µM and 1.07 µM,> 50,0.921,4.72 µM,0.778,> 50 µM,–,–,–,–
Cc1ccc(S(=O)(=O)NCCNc2nccc(-c3c(-c4ccc(F)cc4)nc4sccn34)n2)cc1,–,–,–,–,–,–,–,–,13.5 µM,29.3,11 µM,> 100,4.02,29.4 µM,3.5,> 100 µM,3.88,> 100,7.14,70.9
COCCOc1cnc2ccn([C@H](C)c3nnc4c(F)cc(-c5cnn(C)c5)cn34)c(=O)c2c1,–,–,54900,> 100 µM,> 100 µM,> 100 µM,> 100,> 100 µM,> 100 µM,> 100,> 100 µM,> 100,> 100,> 100 µM,> 100,> 100 µM,> 100,> 100,> 100,> 100
CC(=O)O[C@H](C[C@H](C(C)C)N(C)C(=O)[C@@H](NC(=O)[C@H]1CCCCN1C)C(C)C)c1nc(C(=O)N[C@@H](Cc2ccccc2)C[C@H](C)C(=O)O)c(CCOCc2ccccc2)s1,< 0.001,> 10 µM,< 1,> 10 µM,< 0.001 µM,> 10 µM,< 0.001,> 10 µM,< 0.001 µM,> 10,< 0.001 µM,–,–,–,< 0.001,> 10 µM,< 0.001,0.176,< 0.001,> 10
CC1=NN(C(=O)CC(=O)N(C(=O)c2ccccc2Cl)c2ccc(C)cc2)C(=O)C1N=Nc1ccc([N+](=O)[O-])cc1 (stereo unspecified),–,> 100 µM,–,> 78.5 µM,–,> 63.5 µM,–,> 80.8 µM,–,> 100,–,–,–,77.5 µM,–,> 76.5 µM,–,38.6,–,> 100
COC(=O)/C(C)=C/[N+](=O)[O-],–,8.14 µM,–,22.8 µM,–,34.4 µM,–,13.2 µM,–,57.9,–,–,–,35.6 µM,–,54.8 µM,–,20.8,–,41.2
COc1ccc(C2c3cc(OC)c(OC)cc3C(Cc3ccc([N+](=O)[O-])cc3)C2c2ccc([N+](=O)[O-])cc2)cc1OC (stereo unspecified),–,> 100 µM,–,> 100 µM,–,> 100 µM,–,> 100 µM,–,> 100,–,–,–,> 100 µM,–,> 100 µM,–,> 100,–,> 100
COC(=O)/C(C=O)=C/Sc1ccccc1,–,62 µM,–,> 100 µM,–,> 100 µM,–,> 100 µM,–,> 100,–,–,–,51.7 µM,–,> 100 µM,–,> 100,–,> 100
CC(=O)/C=C/c1ccc(C#Cc2ccccc2)s1,19.3,36.2 µM,–,–,15.6 µM,29 µM,19.8,56.4 µM,19.7 µM,33.8,15 µM,28.2,16.2,33 µM,16.2,33.3 µM,3.67,14.9,14.4,27.4
C1C[OH+]CCNCC[OH+]CC[OH+]CCN1.[Cl-].[Pt+4],> 100,> 100 µM,> 100000,> 100 µM,> 100 µM,> 100 µM,> 100,> 100 µM,> 100 µM,> 100,–,–,> 100,> 100 µM,> 100,> 100 µM,> 100,> 100,> 100,> 100
CC(C)OC(=O)NNc1cc(Cl)ccc1Cl,–,> 100 µM,–,> 100 µM,–,> 100 µM,–,> 100 µM,–,> 100,–,> 100,–,–,–,> 100 µM,–,> 100,–,> 100
CC12CCCCC1(C)C2Sc1ccccc1 (stereo unspecified),–,> 100 µM,–,97 µM,–,> 100 µM,–,19.9 µM,–,> 100,–,–,–,> 70.3 µM,–,> 100 µM,–,> 100,–,> 100
C[C@@]12CCCc3coc(c31)C(=O)c1cc3c(cc12)C(=O)C=CC3=O,> 1,> 1 µM and 28.5 µM,> 1000,> 1 µM and 14.6 µM,> 1 µM,> 1 µM and 36.7 µM,> 1,> 1 µM and 78.2 µM,> 100 µM,> 100,–,–,> 1,> 1 µM and 29.1 µM,> 1,> 1 µM and 41.3 µM,–,> 1,–,29.7
CCCCC1(CN2CCOCC2)S/C(=N/c2nc(CC(=O)OCC)cs2)NC1=O (stereo unspecified),29.9,> 100 µM,32900,> 100 µM,40 µM,> 100 µM,30.9,> 100 µM,44.7 µM,> 100,25.8 µM,74.2,27.6,86.1 µM,–,–,22,63.1,–,–
O=[N+]([O-])c1ccc2c(c1)C(c1ccccc1Cl)=Nc1cn[nH]c1N2,12.7,> 25 µM,–,–,15.3 µM,> 25 µM,19,> 25 µM,> 20.7 µM,> 25,14.6 µM,> 25,4.57,> 25 µM,16.1,> 25 µM,11.2,> 25,> 25,> 25
C=C1C(=O)O[C@H]2[C@H]1CC/C(COC(=O)c1ccc(Cl)nc1)=C\CC[C@@]1(C)O[C@@H]21,–,–,2180,4.84 µM,1.36 µM,3.39 µM,2.19,12.2 µM,11 µM,26.3,2.4 µM,5.7,1.04,2.31 µM,5.19,21.4 µM,1.45,2.84,3.08,12.4

# Source: PubChem BioAssay (NCI)
